# Data taken from the supplement of paper PMC8882468.
# System: HCI-019 (organoid from a triple-negative breast cancer xenograft)
# Assay: CTG-3D luminescence at 96 h relative to day-0 seeding control (ratio to day 0); higher = more growth / less cytotoxicity; PDxO 3D drug screen, 96 h, CTG-3D normalised to day-0 seeding control.
# Conditions: 1 µM; days in culture: 110
row,SMILES,CTG-3D luminescence at 96 h
1,C[C@H](NC(=O)CCC(F)(F)F)C(=O)N[C@@H]1C(=O)N(CCO)c2ncccc2-c2ccccc21 [crenigacestat],1.25
2,COc1cccc2c1C(=O)c1c(O)c3c(c(O)c1C2=O)C[C@@](O)(C(=O)CO)C[C@@H]3O[C@H]1C[C@H](N)[C@H](O)[C@H](C)O1 [doxorubicin],0.296
3,C[C@]12CC[C@@H]3c4ccc(O)cc4C[C@@H](CCCCCCCCC[S+]([O-])CCCC(F)(F)C(F)(F)F)[C@H]3[C@@H]1CC[C@@H]2O (stereo partly specified) [fulvestrant],1.97
4,Nc1ccn([C@@H]2O[C@H](CO)[C@@H](O)C2(F)F)c(=O)n1 [gemcitabine],0.241
5,C=CC(=O)N1CCC[C@@H](n2nc(-c3ccc(Oc4ccccc4)cc3)c3c(N)ncnc32)C1 [ibrutinib],1.21
6,CN(Cc1cnc2nc(N)nc(N)c2n1)c1ccc(C(=O)N[C@@H](CCC(=O)O)C(=O)O)cc1 [methotrexate],1.17
7,CC1(C)CCC(c2ccc(Cl)cc2)=C(CN2CCN(c3ccc(C(=O)NS(=O)(=O)c4ccc(N[C@H](CCN5CCOCC5)CSc5ccccc5)c(S(=O)(=O)C(F)(F)F)c4)cc3)CC2)C1 [navitoclax],0.469
8,NC(=O)c1cccc2cn(-c3ccc([C@@H]4CCCNC4)cc3)nc12 [niraparib],0.642

# Same assay, conditions: 1 µM; days in culture: 131
row,SMILES,CTG-3D luminescence at 96 h
1,C[C@H](NC(=O)CCC(F)(F)F)C(=O)N[C@@H]1C(=O)N(CCO)c2ncccc2-c2ccccc21 [crenigacestat],2.87
2,COc1cccc2c1C(=O)c1c(O)c3c(c(O)c1C2=O)C[C@@](O)(C(=O)CO)C[C@@H]3O[C@H]1C[C@H](N)[C@H](O)[C@H](C)O1 [doxorubicin],0.314
3,C[C@]12CC[C@@H]3c4ccc(O)cc4C[C@@H](CCCCCCCCC[S+]([O-])CCCC(F)(F)C(F)(F)F)[C@H]3[C@@H]1CC[C@@H]2O (stereo partly specified) [fulvestrant],3.13
4,Nc1ccn([C@@H]2O[C@H](CO)[C@@H](O)C2(F)F)c(=O)n1 [gemcitabine],0.344
5,C=CC(=O)N1CCC[C@@H](n2nc(-c3ccc(Oc4ccccc4)cc3)c3c(N)ncnc32)C1 [ibrutinib],1.24
6,CN(Cc1cnc2nc(N)nc(N)c2n1)c1ccc(C(=O)N[C@@H](CCC(=O)O)C(=O)O)cc1 [methotrexate],2.04
7,CC1(C)CCC(c2ccc(Cl)cc2)=C(CN2CCN(c3ccc(C(=O)NS(=O)(=O)c4ccc(N[C@H](CCN5CCOCC5)CSc5ccccc5)c(S(=O)(=O)C(F)(F)F)c4)cc3)CC2)C1 [navitoclax],1.25
8,NC(=O)c1cccc2cn(-c3ccc([C@@H]4CCCNC4)cc3)nc12 [niraparib],0.89

# Same assay, conditions: 1 µM; days in culture: 152
row,SMILES,CTG-3D luminescence at 96 h
1,C[C@H](NC(=O)CCC(F)(F)F)C(=O)N[C@@H]1C(=O)N(CCO)c2ncccc2-c2ccccc21 [crenigacestat],1.96
2,COc1cccc2c1C(=O)c1c(O)c3c(c(O)c1C2=O)C[C@@](O)(C(=O)CO)C[C@@H]3O[C@H]1C[C@H](N)[C@H](O)[C@H](C)O1 [doxorubicin],0.409
3,C[C@]12CC[C@@H]3c4ccc(O)cc4C[C@@H](CCCCCCCCC[S+]([O-])CCCC(F)(F)C(F)(F)F)[C@H]3[C@@H]1CC[C@@H]2O (stereo partly specified) [fulvestrant],1.37
4,Nc1ccn([C@@H]2O[C@H](CO)[C@@H](O)C2(F)F)c(=O)n1 [gemcitabine],0.375
5,C=CC(=O)N1CCC[C@@H](n2nc(-c3ccc(Oc4ccccc4)cc3)c3c(N)ncnc32)C1 [ibrutinib],1.54
6,CN(Cc1cnc2nc(N)nc(N)c2n1)c1ccc(C(=O)N[C@@H](CCC(=O)O)C(=O)O)cc1 [methotrexate],2.27
7,CC1(C)CCC(c2ccc(Cl)cc2)=C(CN2CCN(c3ccc(C(=O)NS(=O)(=O)c4ccc(N[C@H](CCN5CCOCC5)CSc5ccccc5)c(S(=O)(=O)C(F)(F)F)c4)cc3)CC2)C1 [navitoclax],0.769
8,NC(=O)c1cccc2cn(-c3ccc([C@@H]4CCCNC4)cc3)nc12 [niraparib],0.878

# Same assay, conditions: 10 µM; days in culture: 110
row,SMILES,CTG-3D luminescence at 96 h
1,C[C@H](NC(=O)CCC(F)(F)F)C(=O)N[C@@H]1C(=O)N(CCO)c2ncccc2-c2ccccc21 [crenigacestat],2.5
2,COc1cccc2c1C(=O)c1c(O)c3c(c(O)c1C2=O)C[C@@](O)(C(=O)CO)C[C@@H]3O[C@H]1C[C@H](N)[C@H](O)[C@H](C)O1 [doxorubicin],0.00454
3,C[C@]12CC[C@@H]3c4ccc(O)cc4C[C@@H](CCCCCCCCC[S+]([O-])CCCC(F)(F)C(F)(F)F)[C@H]3[C@@H]1CC[C@@H]2O (stereo partly specified) [fulvestrant],2.13
4,Nc1ccn([C@@H]2O[C@H](CO)[C@@H](O)C2(F)F)c(=O)n1 [gemcitabine],0.237
5,C=CC(=O)N1CCC[C@@H](n2nc(-c3ccc(Oc4ccccc4)cc3)c3c(N)ncnc32)C1 [ibrutinib],1.26
6,CN(Cc1cnc2nc(N)nc(N)c2n1)c1ccc(C(=O)N[C@@H](CCC(=O)O)C(=O)O)cc1 [methotrexate],1.54
7,CC1(C)CCC(c2ccc(Cl)cc2)=C(CN2CCN(c3ccc(C(=O)NS(=O)(=O)c4ccc(N[C@H](CCN5CCOCC5)CSc5ccccc5)c(S(=O)(=O)C(F)(F)F)c4)cc3)CC2)C1 [navitoclax],0.538
8,NC(=O)c1cccc2cn(-c3ccc([C@@H]4CCCNC4)cc3)nc12 [niraparib],1.1

# Same assay, conditions: 10 µM; days in culture: 131
row,SMILES,CTG-3D luminescence at 96 h
1,C[C@H](NC(=O)CCC(F)(F)F)C(=O)N[C@@H]1C(=O)N(CCO)c2ncccc2-c2ccccc21 [crenigacestat],2.81
2,COc1cccc2c1C(=O)c1c(O)c3c(c(O)c1C2=O)C[C@@](O)(C(=O)CO)C[C@@H]3O[C@H]1C[C@H](N)[C@H](O)[C@H](C)O1 [doxorubicin],0.00725
3,C[C@]12CC[C@@H]3c4ccc(O)cc4C[C@@H](CCCCCCCCC[S+]([O-])CCCC(F)(F)C(F)(F)F)[C@H]3[C@@H]1CC[C@@H]2O (stereo partly specified) [fulvestrant],2.98
4,Nc1ccn([C@@H]2O[C@H](CO)[C@@H](O)C2(F)F)c(=O)n1 [gemcitabine],0.344
5,C=CC(=O)N1CCC[C@@H](n2nc(-c3ccc(Oc4ccccc4)cc3)c3c(N)ncnc32)C1 [ibrutinib],2.27
6,CN(Cc1cnc2nc(N)nc(N)c2n1)c1ccc(C(=O)N[C@@H](CCC(=O)O)C(=O)O)cc1 [methotrexate],2.25
7,CC1(C)CCC(c2ccc(Cl)cc2)=C(CN2CCN(c3ccc(C(=O)NS(=O)(=O)c4ccc(N[C@H](CCN5CCOCC5)CSc5ccccc5)c(S(=O)(=O)C(F)(F)F)c4)cc3)CC2)C1 [navitoclax],0.358
8,NC(=O)c1cccc2cn(-c3ccc([C@@H]4CCCNC4)cc3)nc12 [niraparib],1.3

# Same assay, conditions: 10 µM; days in culture: 152
row,SMILES,CTG-3D luminescence at 96 h
1,C[C@H](NC(=O)CCC(F)(F)F)C(=O)N[C@@H]1C(=O)N(CCO)c2ncccc2-c2ccccc21 [crenigacestat],2.12
2,COc1cccc2c1C(=O)c1c(O)c3c(c(O)c1C2=O)C[C@@](O)(C(=O)CO)C[C@@H]3O[C@H]1C[C@H](N)[C@H](O)[C@H](C)O1 [doxorubicin],0.00363
3,C[C@]12CC[C@@H]3c4ccc(O)cc4C[C@@H](CCCCCCCCC[S+]([O-])CCCC(F)(F)C(F)(F)F)[C@H]3[C@@H]1CC[C@@H]2O (stereo partly specified) [fulvestrant],2.3
4,Nc1ccn([C@@H]2O[C@H](CO)[C@@H](O)C2(F)F)c(=O)n1 [gemcitabine],0.521
5,C=CC(=O)N1CCC[C@@H](n2nc(-c3ccc(Oc4ccccc4)cc3)c3c(N)ncnc32)C1 [ibrutinib],1.75
6,CN(Cc1cnc2nc(N)nc(N)c2n1)c1ccc(C(=O)N[C@@H](CCC(=O)O)C(=O)O)cc1 [methotrexate],2.28
7,CC1(C)CCC(c2ccc(Cl)cc2)=C(CN2CCN(c3ccc(C(=O)NS(=O)(=O)c4ccc(N[C@H](CCN5CCOCC5)CSc5ccccc5)c(S(=O)(=O)C(F)(F)F)c4)cc3)CC2)C1 [navitoclax],0.582
8,NC(=O)c1cccc2cn(-c3ccc([C@@H]4CCCNC4)cc3)nc12 [niraparib],1.16

# Same assay, conditions: 100 µM; days in culture: 110
row,SMILES,CTG-3D luminescence at 96 h
1,C[C@H](NC(=O)CCC(F)(F)F)C(=O)N[C@@H]1C(=O)N(CCO)c2ncccc2-c2ccccc21 [crenigacestat],2.44
2,COc1cccc2c1C(=O)c1c(O)c3c(c(O)c1C2=O)C[C@@](O)(C(=O)CO)C[C@@H]3O[C@H]1C[C@H](N)[C@H](O)[C@H](C)O1 [doxorubicin],-0.00853
3,C[C@]12CC[C@@H]3c4ccc(O)cc4C[C@@H](CCCCCCCCC[S+]([O-])CCCC(F)(F)C(F)(F)F)[C@H]3[C@@H]1CC[C@@H]2O (stereo partly specified) [fulvestrant],1.73
4,Nc1ccn([C@@H]2O[C@H](CO)[C@@H](O)C2(F)F)c(=O)n1 [gemcitabine],0.181
5,C=CC(=O)N1CCC[C@@H](n2nc(-c3ccc(Oc4ccccc4)cc3)c3c(N)ncnc32)C1 [ibrutinib],-0.00836
6,CN(Cc1cnc2nc(N)nc(N)c2n1)c1ccc(C(=O)N[C@@H](CCC(=O)O)C(=O)O)cc1 [methotrexate],1.35
7,CC1(C)CCC(c2ccc(Cl)cc2)=C(CN2CCN(c3ccc(C(=O)NS(=O)(=O)c4ccc(N[C@H](CCN5CCOCC5)CSc5ccccc5)c(S(=O)(=O)C(F)(F)F)c4)cc3)CC2)C1 [navitoclax],0.0111
8,NC(=O)c1cccc2cn(-c3ccc([C@@H]4CCCNC4)cc3)nc12 [niraparib],0.00205
